US20260355213A1, “TREATMENT OF INFECTIONS CAUSED BY INTRACELLULAR PATHOGENS” (Sheba Impact Ltd., priority 2023, published 2026)

Legend:
[1] = tested on: Listeria monocytogenes in HeLa cells; assay: Intracellular Listeria monocytogenes infection of HeLa cells (CFU at 6 h p.i.); format: cell-based; conditions: 10 μM
Method: 4×10^5 HeLa cells were seeded in a 24-well tissue culture treated plate and incubated for 24 h at 37 °C under 5% CO2 atmosphere. On the next day, cells were incubated for 3 h with fresh DMEM supplemented with the PCM-0094889, PCM-0086166, PCM-0004846, PCM-0103431, PCM-0095494, PCM-0095293, PCM-0001349, and PCM-0095564 compounds at a final concentration of 10 μM. overnight cultures of Listeria monocytogenes that were grown statically at 37 °C were washed and resuspended in PBS. Cell infection at am MOI of 1:50 was conducted by adding 20 μl of Listeria suspension to each well, following by incubation at 37 °C under 5% CO2 atmosphere. 30 min p.i. the cells were washed with PBS and the medium was replaced with fresh medium supplemented with 10 μM of the tested compounds. One h p.i., gentamycin was added to each well at a final concentration of 50 μg/ml. At 6 h p.i., the cells were washed with PBS and lysed with 250 μl DDW at room temperature. The cell lysates were then diluted in PBS and plated on LB plates for CFU count. Intracellular Listeria infection was calculated as the number of intracellular bacteria recovered at 6 h p.i., divided by the infecting inoculum (CFUs). Listeria infection in the presence of the compounds is shown relative to the number of intracellular bacteria that were recovered from cells that were not treated with the compounds. The charts show the mean and standard error of the mean (SEM) of six biological repeats in two independent experiments, biological repeats.

caspase 3 = assay: Caspase 3 activity in HeLa cells (Multiplex Activity Fluorometric Assay Kit); format: cell-based, human; conditions: HeLa cells infected with S. Typhimurium
Text: (§1) One of the possible mechanisms that could explain the activity of the compounds in inhibiting infection by different pathogens is inducing programed cell death in infected cells. To examine this experimentally, the present inventors have used Caspase-3, Caspase-8 and Caspase-9 Multiplex Activity Fluorometric Assay Kit (ab219915) to monitor caspase 3, caspase 8 and caspase 9 activity in HeLa cells infected with S. Typhimurium in the presence and absence of the compounds.

caspase 8 = assay: Caspase 8 activity in HeLa cells (Multiplex Activity Fluorometric Assay Kit); format: cell-based, human; conditions: HeLa cells infected with S. Typhimurium
Text: as §1

Compound	inhibition of Listeria monocytogenes infection of HeLa cells [1]	caspase 3 activity in infected cells (caspase 3)	Caspase 8 activity in infected HeLa cells (caspase 8)
CN1CCN(CCOc2cc(OC3CCOCC3)c3c(Nc4c(Cl)ccc5c4OCO5)ncnc3c2)CC1 [Compound 1]	able to actively inhibit	–	–
CC(C)(C)NCC(O)COc1ccccc1C1CCCC1 (stereo not shown) [Compound 2]	–	significantly higher activity	–
COc1ccccc1C1(CCNCc2ccc(N(C)C)cc2)CCOC(C)(C)C1 (stereo not shown) [Compound 4]	able to actively inhibit	significantly higher activity	–
Cc1cc(Nc2ncnc3ccc(-c4ccc(CNCCS(C)(=O)=O)o4)cc23)ccc1Oc1ccn2ncnc2c1 [Compound 5]	able to actively inhibit	significantly higher activity	significantly higher activity
Cc1nc2c([nH]1)CCN(C(=O)c1ccc(NC(=O)c3ccccc3-c3ccccc3)cc1)c1ccccc1-2 [Compound 6]	–	significantly higher activity	–
O=C(Nc1ccno1)Nc1ccc(Cl)cc1Cl [Compound 7]	able to actively inhibit	significantly higher activity	significantly higher activity
CCc1cc2c(cc1CC)CC(NC[C@@H](O)c1ccc(O)c3[nH]c(=O)ccc13)C2 [Compound 8]	able to actively inhibit	significantly higher activity	–
